In ChEMBL document CHEMBL5241114, “A comprehensive review of BET-targeting PROTACs for cancer therapy” (Bioorg Med Chem, 2022):
pEC50, pIC50, pKd: −log10 of the molar value. Values belong to the compound of their own block, whether it stands above or below them.

Assays:
[1] = target: T1, Bromodomain-containing protein 4 (Homo sapiens, UniProt O60885); assay: Induction of BRD4 degradation in human HeLa cells incubated for 24 hrs by Western blot analysis; format: cell-based
HL-60 = assay: Antiproliferative activity against human HL-60 cells assessed as inhibition of cell growth; format: functional, cell-based
MV4-11 [2] = assay: Antiproliferative activity against human MV4-11 cells assessed as cell growth inhibition measured after […] by Cell Titre Glo Luminescent assay; format: functional, cell-based
Caspase-3/Caspase-7 = target: T2, Caspase-3/Caspase-7 (Homo sapiens, UniProt P42574+P55210); assay: Activation of caspase 3/7 in human 22Rv1 cells by Caspase-Glo reagent based analysis; format: cell-based
T2 sequence (P42574 whole entry): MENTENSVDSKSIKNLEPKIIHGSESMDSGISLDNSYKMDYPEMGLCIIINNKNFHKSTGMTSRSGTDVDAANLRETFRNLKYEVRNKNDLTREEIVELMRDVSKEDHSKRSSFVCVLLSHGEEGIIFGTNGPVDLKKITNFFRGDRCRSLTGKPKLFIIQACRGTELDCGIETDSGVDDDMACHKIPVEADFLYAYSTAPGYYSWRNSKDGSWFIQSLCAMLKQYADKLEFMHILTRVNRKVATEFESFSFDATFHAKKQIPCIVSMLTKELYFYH
T2 sequence (P55210 whole entry): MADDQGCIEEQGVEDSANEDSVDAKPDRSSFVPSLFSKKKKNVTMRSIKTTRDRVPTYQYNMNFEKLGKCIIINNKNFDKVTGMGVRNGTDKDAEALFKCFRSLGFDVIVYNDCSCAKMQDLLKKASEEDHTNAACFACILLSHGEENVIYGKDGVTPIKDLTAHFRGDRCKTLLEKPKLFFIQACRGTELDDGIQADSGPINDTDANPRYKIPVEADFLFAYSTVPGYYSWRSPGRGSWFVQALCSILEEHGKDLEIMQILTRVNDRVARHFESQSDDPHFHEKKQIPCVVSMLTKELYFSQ

EOL1 = assay: Antiproliferative activity against human EOL1 cells assessed as inhibition of cell growth; format: functional, cell-based
[3] = target: T1, Bromodomain-containing protein 4; assay: Induction of BRD4 degradation in human 231MFP cells at 10 uM incubated for 60 mins by Western blot analysis relative to control; format: cell-based
[4] = target: T3, Bromodomain-containing protein 2 (Homo sapiens, UniProt P25440); assay: Induction of BRD2 degradation in human 22Rv cells incubated for 16 hrs by Western blot analysis; format: cell-based; conditions: 22rv1
[5] = target: T3, Bromodomain-containing protein 2; assay: Induction of BRD2 degradation in human VCaP cells incubated for 16 hrs by Western blot analysis; format: cell-based
[6] = target: T3, Bromodomain-containing protein 2; assay: Induction of BRD2 degradation in human LNCaP-95 cells incubated for 16 hrs by Western blot analysis; format: cell-based
[7] = target: von Hippel-Lindau disease tumor suppressor/Bromodomain-containing protein 2 (Homo sapiens, UniProt P25440+P40337); assay: Protac activity at BRD2/VHL-bound E3 ligase in human 22Rv1 cells assessed as reduction c-Myc level incubated for 24 hrs by Western blot analysis; format: cell-based
BXPC-3 = assay: Antiproliferative activity against human BXPC-3 cells assessed as inhibition of cell growth incubated for 72 hrs by MTT assay; format: functional, cell-based; conditions: BXPC-3, 72 h
MV4-11 [8] = assay: Antiproliferative activity against human MV4-11 cells assessed as inhibition of cell growth; format: functional, cell-based
MM1.S = assay: Antiproliferative activity against human MM1.S cells assessed as inhibition of cell growth; format: functional, cell-based
[9] = target: T1, Bromodomain-containing protein 4; assay: Induction of degradation of BRD4 (unknown origin)
MDA-MB-468 [10] = assay: Antiproliferative activity against human MDA-MB-468 cells assessed as inhibition of cell growth; format: functional, cell-based
MV4-11 [11] = assay: Cytotoxicity against human MV4-11 cells measured after 96 hrs; format: functional, cell-based; conditions: MV4-11, 96 h
[12] = target: T1, Bromodomain-containing protein 4; assay: Induction of BRD4 degradation in human HD-MB03 cells measured after 12 hrs; format: cell-based
[13] = target: T1, Bromodomain-containing protein 4; assay: Binding affinity to BRD4 bromodomain 1 in human Ramos cells; format: cell-based
[14] = target: T1, Bromodomain-containing protein 4; assay: Induction of BRD4 degradation in human HD-MB03 cells at 100 nM measured at 12 hrs relative to control; format: cell-based
MV4-11 [15] = assay: Cytotoxicity against human MV4-11 cells; format: functional, cell-based
[16] = Antiproliferative activity against human Burkitts lymphoma cells; format: functional; conditions: Burkitts lymphoma cell
NAMALVA = assay: Antiproliferative activity against human NAMALVA cells; format: functional
[17] = target: T1, Bromodomain-containing protein 4; assay: Induction of BRD4 (unknown origin) degradation at 1 uM relative to control
MDA-MB-468 [18] = assay: Antiproliferative activity against human MDA-MB-468 cells; format: functional, cell-based
MDA-MB-468 [19] = assay: Antitumor activity against human MDA-MB-468 cells xenografted in mouse assessed as tumor growth inhibition at 5 mg/kg, iv; format: functional; conditions: read-out: TGI
[20] = target: Bromodomain-containing protein 3 (Homo sapiens, UniProt Q15059); assay: Induction of BRD3 degradation in human HeLa cells measured after 4 hrs; format: cell-based
[21] = target: von Hippel-Lindau disease tumor suppressor (Homo sapiens, UniProt P40337); assay: Binding affinity to VHL (unknown origin) assessed as dissociation constant by isothermal titration calorimetry assay
CWR22R = assay: Antiproliferative activity against human 22Rv1 cells assessed as reduction in cell viability incubated for 48 to 72 hrs by Celltiter-Glo cell viability assay; format: functional, cell-based
[22] = target: T1, Bromodomain-containing protein 4; assay: Binding affinity to BRD4 BD2 (unknown origin) assessed as dissociation constant by isothermal titration calorimetry assay
MV4-11 [23] = assay: Antiproliferative activity against human MV4-11 cells assessed as reduction in cell viability incubated for 48 to 72 hrs by Celltiter-Glo cell viability assay; format: functional, cell-based
[24] = target: T3, Bromodomain-containing protein 2; assay: Binding affinity to BRD2 BD1 (unknown origin) assessed as dissociation constant by isothermal titration calorimetry assay
[25] = target: T1, Bromodomain-containing protein 4; assay: Induction of BRD4 degradation in human 22Rv1 cells assessed as downregulation of c-Myc expression at 250 nM measured after 2 hrs relative to control; format: cell-based
[26] = target: T1, Bromodomain-containing protein 4; assay: Induction of BRD4 degradation in human HeLa cells measured after 4 hrs; format: cell-based
RS4-11 [27] = assay: Antiproliferative activity against human RS4-11 cells assessed as reduction in cell viability incubated for 72 hrs under dark condition; format: functional, cell-based; conditions: RS4-11, 72 h
RS4-11 [28] = assay: Antiproliferative activity against human RS4-11 cells assessed as reduction in cell viability incubated for 72 hrs under light irradiation; format: functional, cell-based; conditions: RS4-11, light or radiation study
[29] = target: T1, Bromodomain-containing protein 4; assay: Induction of BRD4 degradation in human HEK293T cells at 20 uM relative to control; format: cell-based
[30] = target: T1, Bromodomain-containing protein 4; assay: Induction of BRD4 degradation in human HEK293T cells at 10 uM measured at 6 hrs relative to control; format: cell-based
[31] = target: T1, Bromodomain-containing protein 4; assay: Induction of BRD4 degradation in human HEK293T cells; format: cell-based
MCF7 [32] = assay: Antitumor activity against human MCF7 cells xenografted in mouse assessed as tumor growth inhibition; format: functional
[33] = target: T1, Bromodomain-containing protein 4; assay: Induction of BRD4 degradation in human MCF7 cells incubated for 72 hrs by Western blot analysis relative to control; format: cell-based
[34] = target: T1, Bromodomain-containing protein 4; assay: Induction of BRD4 degradation in human MCF7 cells incubated for 72 hrs by Western blot analysis; format: cell-based
[35] = Cytotoxicity against human MCF10 cells assessed as measuring cell viability incubated for 48 hrs by CCK-8 assay; format: toxicity, cell-based
MCF7 [36] = assay: Cytotoxicity against human MCF7 cells assessed as measuring cell viability incubated for 48 hrs by CCK-8 assay; format: toxicity, cell-based; conditions: MCF7, 48 h

T3 sequence (P25440 whole entry): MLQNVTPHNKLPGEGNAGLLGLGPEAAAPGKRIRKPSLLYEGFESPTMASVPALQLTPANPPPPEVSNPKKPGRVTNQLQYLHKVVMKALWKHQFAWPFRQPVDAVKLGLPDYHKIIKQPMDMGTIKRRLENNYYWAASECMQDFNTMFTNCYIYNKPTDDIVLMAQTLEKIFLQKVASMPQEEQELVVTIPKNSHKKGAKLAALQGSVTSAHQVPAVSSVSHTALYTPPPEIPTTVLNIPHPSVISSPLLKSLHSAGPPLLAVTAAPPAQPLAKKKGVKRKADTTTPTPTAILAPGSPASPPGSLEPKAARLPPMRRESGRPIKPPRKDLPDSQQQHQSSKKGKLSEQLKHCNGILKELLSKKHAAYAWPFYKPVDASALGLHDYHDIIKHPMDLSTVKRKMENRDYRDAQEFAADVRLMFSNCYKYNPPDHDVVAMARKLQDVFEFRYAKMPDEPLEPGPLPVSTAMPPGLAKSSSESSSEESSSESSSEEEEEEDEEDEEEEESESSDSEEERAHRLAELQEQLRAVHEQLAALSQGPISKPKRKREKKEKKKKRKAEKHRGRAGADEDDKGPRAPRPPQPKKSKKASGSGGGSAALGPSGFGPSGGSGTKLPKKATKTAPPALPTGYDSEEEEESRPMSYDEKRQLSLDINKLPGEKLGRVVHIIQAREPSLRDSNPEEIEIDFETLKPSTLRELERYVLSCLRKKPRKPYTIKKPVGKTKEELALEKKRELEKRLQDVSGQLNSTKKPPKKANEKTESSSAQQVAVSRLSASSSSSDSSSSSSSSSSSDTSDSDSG
Bromodomain-containing protein 3, sequence (Q15059 whole entry): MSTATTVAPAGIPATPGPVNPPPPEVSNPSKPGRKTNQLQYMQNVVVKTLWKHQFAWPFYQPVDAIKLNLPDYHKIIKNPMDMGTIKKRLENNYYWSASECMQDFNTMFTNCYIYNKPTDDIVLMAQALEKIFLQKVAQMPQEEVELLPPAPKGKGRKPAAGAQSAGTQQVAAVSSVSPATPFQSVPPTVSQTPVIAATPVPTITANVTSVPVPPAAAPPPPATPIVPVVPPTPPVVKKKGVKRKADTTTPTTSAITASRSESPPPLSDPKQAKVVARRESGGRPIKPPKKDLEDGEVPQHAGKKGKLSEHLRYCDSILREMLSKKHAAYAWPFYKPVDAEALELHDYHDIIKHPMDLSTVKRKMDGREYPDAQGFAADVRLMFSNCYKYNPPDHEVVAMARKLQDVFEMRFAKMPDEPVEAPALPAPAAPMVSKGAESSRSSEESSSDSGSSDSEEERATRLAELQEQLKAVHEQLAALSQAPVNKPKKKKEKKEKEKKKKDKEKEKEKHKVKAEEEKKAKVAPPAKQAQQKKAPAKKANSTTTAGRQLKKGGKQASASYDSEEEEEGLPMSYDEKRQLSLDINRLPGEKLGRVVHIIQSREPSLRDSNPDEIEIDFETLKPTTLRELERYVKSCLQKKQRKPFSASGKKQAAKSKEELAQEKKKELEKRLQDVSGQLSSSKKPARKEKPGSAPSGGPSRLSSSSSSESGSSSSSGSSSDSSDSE
von Hippel-Lindau disease tumor suppressor/Bromodomain-containing protein 2, sequence (P25440 whole entry): as the sequence (P25440 whole entry) above
von Hippel-Lindau disease tumor suppressor/Bromodomain-containing protein 2, sequence (P40337 whole entry): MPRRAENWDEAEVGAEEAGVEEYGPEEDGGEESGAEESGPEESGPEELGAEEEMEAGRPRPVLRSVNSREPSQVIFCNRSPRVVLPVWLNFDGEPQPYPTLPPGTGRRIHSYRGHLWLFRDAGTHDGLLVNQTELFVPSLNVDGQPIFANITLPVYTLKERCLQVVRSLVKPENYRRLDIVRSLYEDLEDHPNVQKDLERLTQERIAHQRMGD
von Hippel-Lindau disease tumor suppressor, sequence (P40337 whole entry): as above

Activity [3]: 30%
SMILES: Cc1sc2c(c1C)C(c1ccc(Cl)cc1)=N[C@@H](CC(=O)NCCCCOc1ccc(Oc3ccc(N(Cc4ccccc4)C(=O)CCl)cc3)cc1)c1nnc(C)n1-2

pIC50 (MV4-11 [8]): 9.05 | pIC50 (MM1.S): 8.17 | DC50 [9]: < 0.5 nM | pIC50 (MDA-MB-468 [10]): 6.90
SMILES: Cc1sc2c(c1C)C(c1ccc(Cl)cc1)=N[C@@H](CC(=O)NCCCCCNc1cccc3c1CN(C1CCC(=O)NC1=O)C3=O)c1nnc(C)n1-2 (some centres not stated)

pEC50 (RS4-11 [27]): 6.21 | pEC50 (RS4-11 [28]): 7.05
SMILES: COc1cc(/N=N/c2cccc3c2CN(C2CCC(=O)NC2=O)C3=O)cc(OC)c1OCC(=O)NCCCCNC(=O)C[C@@H]1N=C(c2ccc(Cl)cc2)c2c(sc(C)c2C)-n2c(C)nnc21 (some centres not stated)

Emax [30]: 60% | DC50 [31]: 3600 nM
SMILES: Cc1sc2c(c1C)C(c1ccc(Cl)cc1)=N[C@@H](CC(=O)NCCOCCOCCOCCN1CCOc3cc(N(CCC#N)C(=O)CCl)ccc31)c1nnc(C)n1-2

The remaining lines, values behind:

SMILES: Cc1ncsc1-c1ccc(CNC(=O)[C@@H]2[C@@H](F)[C@@H](O)CN2C(=O)[C@@H](NC(=O)COCCOCCOCCNC(=O)C[C@@H]2N=C(c3ccc(Cl)cc3)c3c(sc(C)c3C)-n3c(C)nnc32)C(C)(C)C)cc1
DC50 [1]: 1 nM

SMILES: Cc1ncsc1-c1ccc(CNC(=O)[C@@H]2C[C@@H](O)CN2C(=O)[C@@H](NC(=O)COCCOCCOCCNC(=O)C[C@@H]2N=C(c3ccc(Cl)cc3)c3c(sc(C)c3C)-n3c(C)nnc32)C(C)(C)C)cc1
pIC50 (HL-60): 8.82 | pEC50 (MV4-11 [2]): 7.30 | EC50 (Caspase-3/Caspase-7): 150 nM | pIC50 (EOL1): 8.82

SMILES: Cc1ncsc1-c1ccc([C@H](C)NC(=O)[C@@H]2C[C@@H](O)CN2C(=O)[C@@H](NC(=O)COCCCOCCNC(=O)C[C@@H]2N=C(c3ccc(Cl)cc3)c3c(sc(C)c3C)-n3c(C)nnc32)C(C)(C)C)cc1
DC50 [4]: < 5 nM | DC50 [5]: < 5 nM | pIC50 (HL-60): 8.82 | DC50 [6]: < 5 nM | EC50 (Caspase-3/Caspase-7): 90 nM | pIC50 [7]: > 9.00 | pIC50 (EOL1): 8.82

SMILES: CCS(=O)(=O)Nc1ccc(Oc2ccc(F)cc2F)c(-c2cn(C)c(=O)c3[nH]c(C(=O)NCc4cn(CCOCC(=O)Nc5cccc6c5CN(C5CCC(=O)NC5=O)C6=O)nn4)cc23)c1 (configuration not stated)
pIC50 (BXPC-3): 6.77

SMILES: CCn1nc(C2CC2)cc1Nc1nc(C(=O)NCCCOCCOCCOCCCNc2cccc3c2C(=O)N(C2CCC(=O)NC2=O)C3=O)nc2[nH]c3cc(-c4c(C)noc4C)c(OC)cc3c12 (configuration not stated)
pIC50 (MV4-11 [11]): 8.22 | DC50 [12]: 230 nM | pIC50 [13]: 7.66 | Emax [14]: 63% | pIC50 (MV4-11 [15]): 5.91 | GI50 [16]: 400 nM | DC50 [9]: 5 nM | GI50 (NAMALVA): 340 nM | Emax [17]: 93% | pIC50 (MDA-MB-468 [18]): > 8.00 | inhibition in vivo at 5 mg/kg (MDA-MB-468 [19]): 85%

SMILES: Cc1ncsc1-c1ccc2c(c1)OCCOCCOC[C@@H](NC(=O)C[C@H]1N=C(c3ccc(Cl)cc3)c3c(sc(C)c3C)-n3c(C)nnc31)COCCOCCOCC(=O)N[C@@H](C(C)(C)C)C(=O)N1C[C@H](O)C[C@H]1C(=O)NC2
DC50 [20]: 25 nM | pKd [21]: 7.33 | pEC50 (CWR22R): 6.19 | pKd [22]: 6.74 | pEC50 (MV4-11 [23]): 6.52 | pKd [24]: 6.74 | Activity [25]: > 90% | DC50 [26]: 125 nM

SMILES: O=C(CCl)N1CCCc2cc(O)ccc21
Activity [29]: 35%

SMILES: Cc1sc2c(c1C)C(c1ccc(Cl)cc1)=N[C@@H](CC(=O)NCCOCCOCCOCC(=O)NC(C)C(C)(C)C)c1nnc(C)n1-2 (some centres not stated)
TGI (MCF7 [32]): 59.8% | Emax [33]: 13% | DC50 [34]: 22 nM | IC50 at 48 h [35]: 670 nM | pIC50 (MCF7 [36]): 7.22
